Data from patent publication US5082772A, “Process for preparing deacetylcephalosporin C” (priority 1988, dated 1992).
Values joined by “and” are separate entries in the source; they are usually repeats but may differ in a detail not shown here. Equal values may be shown once. Read-outs that look alike come from different tables or passages of the source.

Legend:
Assay type in all cases: biochemical
DAOC synthase [1] = molecular target: T1, DAOC synthase (Streptomyces clavuligerus, UniProt P18548); assay: Cofactor and metal ion requirement and stimulation of DAOC synthase activity
Description: (§1) The enzymatic reaction was initiated by addition of penicillin N and was conducted for 15 min at 36° C. The synthase activity was determined by monitoring DAOC formation at 260 nm with HPLC as described by Dotzlaf, J. E., and Yeh, W. K (1987), J. Bacteriol 169, 1611-1618.

DAOC synthase [2] = molecular target: T1, DAOC synthase; assay: Substrate specificity of DAOC synthase (HPLC detection); details: optimum conditions for converting penicillin N to DAOC; HPLC detectable
[3] = molecular target: T2, recombinantly produced DAOC synthase (Streptomyces clavuligerus, UniProt P18548); assay: Kinetics of recombinant enzyme (Lineweaver-Burk); details: pH 7.0, 50 mM HEPES buffer, 36° C.
T2 construct: made in house; host or cells: Escherichia coli K12 JM109 (plasmid pOW382)
Description: The kinetics of the native enzyme and recombinant enzyme were determined under the optimal reaction conditions for the enzyme, i.e., at pH 7.0 in 50 mM HEPES buffer at 36° C.

native synthase = molecular target: T3, native synthase (Streptomyces clavuligerus, UniProt P18548); assay: Kinetics of native synthase, partially purified (Mono Q eluate); details: native partially purified enzyme; Tris-HCl buffer, 36° C.
T3 construct: native synthase, evaluated with the partially purified enzyme; endogenous in cells; host or cells: Streptomyces clavuligerus cells, crude extract, three-step purification (Mono Q eluate)

purified synthase [4] = molecular target: T4, purified synthase (Streptomyces clavuligerus, UniProt P18548); assay: Stoichiometric analysis of conversion of penicillin N to DAOC; details: over 60 min of the reaction
Description: In the conversion of penicillin N to DAOC by the purified synthase provided herein, the molar ratio for DAOC formation/penicillin N disappearance over 60 min of the reaction remained in the range of 0.90-0.98 as shown in FIG. 5. The conversion of penicillin N to DAOC was 94% complete under the reaction conditions.

DAOC synthase [5] = molecular target: T1, DAOC synthase; assay: DAOC synthase activity assay: effect of metal chelators, sulfhydryl reagents and other inhibitors
Description: ^1 Enzymatic reactions were conducted in the presence of […]
FeSO4 and 0.1 mM DTT. The enzyme was incubated with the indicated
inhibitor for 1 min prior to the initiation of the reaction with
as §1

purified synthase [6] = molecular target: T4, purified synthase; assay: Hydroxylase activity (conversion to DAC)
[7] = metal ions: order Zn2+ > Co2+ > Ni2+
[8] = additive 0.1 mM, 0.06 mN FeSO4, 0.1 mM DTT, 1 min incubation with inhibitor before penicillin N
[9] = additive 1.0 mM, 0.06 mN FeSO4, 0.1 mM DTT, 1 min incubation with inhibitor before penicillin N

T1 sequence (P18548 whole entry): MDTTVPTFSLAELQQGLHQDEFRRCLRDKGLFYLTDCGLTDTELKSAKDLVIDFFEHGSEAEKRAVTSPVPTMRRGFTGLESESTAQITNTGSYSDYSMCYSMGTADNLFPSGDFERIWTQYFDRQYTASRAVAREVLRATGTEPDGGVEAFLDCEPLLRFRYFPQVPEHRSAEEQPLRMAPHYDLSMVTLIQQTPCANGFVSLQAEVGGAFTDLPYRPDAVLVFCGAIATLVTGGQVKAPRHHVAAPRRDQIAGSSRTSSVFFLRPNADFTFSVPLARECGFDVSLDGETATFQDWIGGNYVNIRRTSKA
T4 sequence (P18548 whole entry): as above
T2 sequence (P18548 whole entry): as above
T3 sequence (P18548 whole entry): as above

Nc1ncnc2c1ncn2[C@@H]1O[C@H](COP(=O)(O)OP(=O)(O)OP(=O)(O)O)[C@@H](O)[C@H]1O [ATP, adenosine triphosphate]
stimulation of DAOC synthase activity (DAOC synthase [1]): No detectable stimulation

CC1(C)S[C@@H]2[C@H](N)C(=O)N2[C@H]1C(=O)O [6-aminopenicillanic acid]
synthase activity with the compound as substrate (DAOC synthase [2]): No synthase activity was observed

[Fe+3] [Ferric ion]
replacement of ferrous ion for expression of enzyme activity (DAOC synthase [1]; in the presence of DTT and ascorbate, enzyme slightly less active): can substitute for ferrous ion

[Fe+2] [ferrous ion]
Ka [3]: 8 µM
Ka (native synthase): 4 µM
requirement for expression of catalytic activity (DAOC synthase [1]): requires

CC1(C)S[C@@H]2[C@H](NC(=O)CCC[C@@H](N)C(=O)O)C(=O)N2[C@H]1C(=O)O [penicillin N]
molar ratio for DAOC formation/penicillin N disappearance (purified synthase [4]): 0.90-0.98

C=C1CS[C@@H]2[C@H](NC(=O)CCCC(N)C(=O)O)C(=O)N2C1C(=O)O (stereo partly drawn) [3-exomethylenecephalosporin C, 7β-(α-aminoadipamido)-3-exomethylenecepham-4-carboxylic acid]
inhibition of DAOC synthase activity (in words) (DAOC synthase [5]; [7]): strong inhibitor
conversion to DAC by the purified synthase (purified synthase [6]): possesses the ability to convert 3-exomethylenecephalosporin C to DAC

O=O [oxygen]
requirement for expression of catalytic activity (DAOC synthase [1]): requires

[Zn+2] [zinc]
inhibition of DAOC synthase activity (in words) (DAOC synthase [5]; [7]): inhibited
replacement of ferrous ion for expression of enzyme activity (DAOC synthase [1]): could not be replaced

[Ni+2] [nickel]
inhibition of DAOC synthase activity (in words) (DAOC synthase [5]; [7]): inhibited
replacement of ferrous ion for expression of enzyme activity (DAOC synthase [1]): could not be replaced

CC1(C)S[C@@H]2[C@H](NC(=O)[C@H](N)c3ccccc3)C(=O)N2[C@H]1C(=O)O [ampicillin]
synthase activity with the compound as substrate (DAOC synthase [2]): No synthase activity was observed

c1cnc2c(c1)ccc1cccnc12 [o-Phenanthroline, 1,10-phenanthroline]
Relative Activity (%) (DAOC synthase [5]; additive 0.02 mM, 0.06 mN FeSO4, 0.1 mM DTT, 1 min incubation with inhibitor before penicillin N): 63%
Relative Activity (%) (DAOC synthase [5]; additive 0.2 mM, 0.06 mN FeSO4, 0.1 mM DTT, 1 min incubation with inhibitor before penicillin N): 0%
inhibition of DAOC synthase activity (in words) (DAOC synthase [5]; [7]): highly sensitive to inhibition

CC1(C)S[C@@H]2[C@H](NC(=O)COc3ccccc3)C(=O)N2[C@H]1C(=O)O [penicillin V]
synthase activity with the compound as substrate (DAOC synthase [2]): No synthase activity was observed

O=C(O)c1cc[c]([Hg+])cc1.[OH-] [p-HMB, p-hydroxymercuribenzoate]
Relative Activity (%) (DAOC synthase [5]; [8]): 0%
Relative Activity (%) (DAOC synthase [5]; [9]): 0%
inhibition of DAOC synthase activity (in words) (DAOC synthase [5]; [7]): highly susceptible to inhibition

[Mg] [magnesium]
replacement of ferrous ion for expression of enzyme activity (DAOC synthase [1]): could not be replaced

[Ca] [calcium]
replacement of ferrous ion for expression of enzyme activity (DAOC synthase [1]): could not be replaced

O[C@H](CS)[C@H](O)CS (racemic) [DTT, dithiothreitol]
restoration of synthase activity after DTNB inactivation (DAOC synthase [5]; 2 mM DTT added, 30 min): fully restored
stimulation of DAOC synthase activity (DAOC synthase [1]): stimulated

CCN1C(=O)C=CC1=O [NEM, N-ethylmaleimide]
Relative Activity (%) (DAOC synthase [5]; [8]): 55%
Relative Activity (%) (DAOC synthase [5]; [9]): 0%
inhibition of DAOC synthase activity (in words) (DAOC synthase [5]; [7]): highly susceptible to inhibition

O=C(O)c1cc(SSc2ccc([N+](=O)[O-])c(C(=O)O)c2)ccc1[N+](=O)[O-] [DTNB, 5,5'-dithiobis-2-nitrobenzoic acid]
inactivation of the enzyme (DAOC synthase [5]; 0.2 mM DTNB, 0.5 min, 4° C.): complete inactivation
Relative Activity (%) (DAOC synthase [5]; [8]): 70%
Relative Activity (%) (DAOC synthase [5]; [9]): 0%
inhibition of DAOC synthase activity (in words) (DAOC synthase [5]; [7]): highly susceptible to inhibition

[Mn+2] [manganous]
replacement of ferrous ion for expression of enzyme activity (DAOC synthase [1]): could not be replaced

[Na+] [sodium]
replacement of ferrous ion for expression of enzyme activity (DAOC synthase [1]): could not be replaced

[K+] [potassium]
replacement of ferrous ion for expression of enzyme activity (DAOC synthase [1]): could not be replaced

O=C(O)CN(CCN(CC(=O)O)CC(=O)O)CC(=O)O [EDTA, ethylenediamine tetraacetic acid]
inhibition of DAOC synthase activity (in words) (DAOC synthase [5]): highly sensitive to inhibition

CC1(C)S[C@@H]2[C@H](NC(=O)CCC[C@H](N)C(=O)O)C(=O)N2[C@H]1C(=O)O [isopenicillin N]
synthase activity with the compound as substrate (DAOC synthase [2]): No synthase activity was observed

CC1=C(C(=O)O)N2C(=O)[C@@H](NC(=O)CCC[C@@H](N)C(=O)O)[C@H]2SC1 [DAOC, deacetoxycephalosporin C]
conversion to DAC by the purified synthase (purified synthase [6]): lacks the hydroxylase activity for converting DAOC to DAC

[Co+2] [cobaltous]
inhibition of DAOC synthase activity (in words) (DAOC synthase [5]; [7]): inhibited
replacement of ferrous ion for expression of enzyme activity (DAOC synthase [1]): could not be replaced

CC1(C)S[C@@H]2[C@H](NC(=O)Cc3ccccc3)C(=O)N2[C@H]1C(=O)O [penicillin G]
synthase activity with the compound as substrate (DAOC synthase [2]): No synthase activity was observed

[Cu+] [cuprous]
replacement of ferrous ion for expression of enzyme activity (DAOC synthase [1]): could not be replaced

O=C(O)CI [Iodoacetic acid, iodoacetic acid]
Relative Activity (%) (DAOC synthase [5]): 100% and 65%
inhibition of DAOC synthase activity (in words) (DAOC synthase [5]): slightly inhibited
